Assay results as given in patent US10703843B2, “Compositions and methods for bonding glues, adhesives, and coatings to surfaces” (University of Virginia Patent Foundation, priority 2014, dated 2020).

Tests used:
[1] = from Ref. [17]; cited from earlier work
[2] = at 20° C.; from Refs [18], [19]; cited from earlier work
[3] = Measured solubilities of ECA and PECA in solvents and of solvents in PECA; details: ±10%; for Solubility (wt %) ECA in: solubility of ECA in the listed solvent; for Solubility (wt %) PECA in: solubility of PECA in the listed solvent; for Solubility (wt %) in PECA: solubility of the listed solvent in PECA

Row | Molecule | ET^N normalized empirical parameter of solvent polarity [1] | σ surface tension [2] | Solubility (wt %) ECA in [3] | Solubility (wt %) PECA in [3] | Solubility (wt %) in PECA [3]
1 | CCOC(C)=O [ethyl acetate] | 0.228 | 24.1 mN/m | – | – | –
2 | CC(C)=O [acetone] | 0.355 | 24.1 mN/m | miscible | miscible | miscible
3 | C1CCCCC1 [cyclohexane] | 0.006 | 25.2 mN/m | – | – | –
4 | CCCCCCC [n-heptane] | 0.012 | 20.1 mN/m | 7.5 wt % | 0.05 wt % | 0.4 wt %
5 | CCOCC [diethyl ether] | 0.117 | 17.1 mN/m | miscible | 0.10 wt % | –
6 | COCCOC [1,2-dimethoxyethane] | – | – | miscible | miscible | miscible
7 | Cc1ccccc1 [toluene] | 0.099 | – | – | – | –
8 | xylene | 0.074 | 29.3 mN/m | miscible | 0.24 wt % | –
9 | CCCCCC [n-hexane] | 0.009 | 18.4 mN/m | – | – | –
10 | CCCCC [n-pentane] | 0.009 | 16.1 mN/m | 11.4 wt % | 0.11 wt % | 0.8 wt %
